Key:
pigs = details: aminoguanidine 100 mg/kg and gavage of histamine 2 mg/kg; cited from earlier work
AOC3 = target: T1, AOC3 (Homo sapiens, UniProt Q16853); experiment: AOC3 biochemical assay (MAO-Glo); details: Table 1; read-out: AOC3 IC50
T1 construct: expressed in transfected cells; host or cells: CHO cells
T1 sequence (Q16853 1-763): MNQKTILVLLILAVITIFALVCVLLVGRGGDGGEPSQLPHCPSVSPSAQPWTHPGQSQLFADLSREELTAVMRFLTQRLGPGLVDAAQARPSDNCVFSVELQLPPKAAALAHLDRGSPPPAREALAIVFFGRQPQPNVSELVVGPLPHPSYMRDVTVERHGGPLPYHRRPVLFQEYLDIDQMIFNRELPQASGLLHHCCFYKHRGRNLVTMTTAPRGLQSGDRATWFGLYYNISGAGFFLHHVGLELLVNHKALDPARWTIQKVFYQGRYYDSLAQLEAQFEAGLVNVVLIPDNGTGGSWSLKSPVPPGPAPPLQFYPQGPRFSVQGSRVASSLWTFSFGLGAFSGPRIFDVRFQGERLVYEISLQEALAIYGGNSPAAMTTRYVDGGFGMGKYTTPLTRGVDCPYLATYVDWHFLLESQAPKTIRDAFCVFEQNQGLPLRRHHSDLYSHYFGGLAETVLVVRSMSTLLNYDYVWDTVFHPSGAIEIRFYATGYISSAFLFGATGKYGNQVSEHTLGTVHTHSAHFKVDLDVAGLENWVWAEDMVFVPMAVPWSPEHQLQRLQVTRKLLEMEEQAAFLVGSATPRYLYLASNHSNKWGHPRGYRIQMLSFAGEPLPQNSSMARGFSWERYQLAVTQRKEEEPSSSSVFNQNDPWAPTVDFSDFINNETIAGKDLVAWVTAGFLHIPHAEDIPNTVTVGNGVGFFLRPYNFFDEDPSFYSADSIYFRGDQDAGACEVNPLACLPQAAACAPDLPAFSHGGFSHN
Description: As substrate a derivate of the beetle luciferin ((4S)-4,5-dihydro-2-(6-hydroxybenzothiazolyl)-4-thiazole-carboxylic acid) is used, which is oxidized at a primary amine moiety. After a spontaneous elimination and a catalyzed esterase reaction, the turnover of the luciferine by the luciferase is recorded as a signal of AOC3 activity.
Recombinant CHO cells, overexpressing the human (1500 cells/well), mouse (1000 cells/well) or rat (500 cells/well) AOC3 enzyme are diluted in reaction buffer and added in a volume of 15 μL to the wells. After incubation for 20 minutes at 37° C., 2 μL of MAO substrate (dissolved in DMSO at 16 mM, adjusted to assay concentration in reaction buffer to a final assay concentration of 20 μM) is added and further incubated for 60 minutes at 37° C. The turnover of the substrate is determined by the addition of 20 μL of the detection-mix which was generated by the addition of reconstitution buffer with esterase (PROMEGA, #V1402) to the luciferine detection reagent (PROMEGA, #V1402).

AOC1 = target: T2, AOC1 (Homo sapiens, UniProt P19801); experiment: AOC1 biochemical assay (Amplex Red); details: Table 1; read-out: AOC1 IC50
T2 construct: purchased R&D Systems 8297-AO-010
T2 sequence (P19801 20-751): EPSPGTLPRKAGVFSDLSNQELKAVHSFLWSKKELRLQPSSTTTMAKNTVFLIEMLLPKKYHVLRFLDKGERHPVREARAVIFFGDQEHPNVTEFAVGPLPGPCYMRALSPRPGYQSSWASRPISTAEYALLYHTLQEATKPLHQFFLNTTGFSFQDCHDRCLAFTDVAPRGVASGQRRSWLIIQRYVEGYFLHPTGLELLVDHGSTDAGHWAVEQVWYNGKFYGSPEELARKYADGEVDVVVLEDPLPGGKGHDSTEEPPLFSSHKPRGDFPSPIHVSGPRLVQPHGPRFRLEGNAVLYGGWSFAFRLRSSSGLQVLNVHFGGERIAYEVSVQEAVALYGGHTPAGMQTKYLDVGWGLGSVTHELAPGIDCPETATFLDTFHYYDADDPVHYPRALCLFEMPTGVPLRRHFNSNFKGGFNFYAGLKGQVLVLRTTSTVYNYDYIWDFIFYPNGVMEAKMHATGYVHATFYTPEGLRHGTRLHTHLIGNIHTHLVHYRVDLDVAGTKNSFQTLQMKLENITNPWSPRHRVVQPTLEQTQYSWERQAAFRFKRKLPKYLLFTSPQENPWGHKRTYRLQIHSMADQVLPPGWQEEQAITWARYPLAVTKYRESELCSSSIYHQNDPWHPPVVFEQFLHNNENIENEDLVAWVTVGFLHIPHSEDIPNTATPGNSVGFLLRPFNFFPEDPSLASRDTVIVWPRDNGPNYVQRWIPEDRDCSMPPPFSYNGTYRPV
Excerpt: The Amplex® Red Assay (available from Thermo Fisher Scientific) provides a sensitive method for the detection of H2O2 generated during enzymatic reactions like the amine oxidation catalyzed by AOC1.

melting point | IC50 (AOC3) | IC50 (AOC1) | Structure (SMILES) | death (pigs)
– | – | – | N=C(N)NN [aminoguanidine] | 3 out of 15
195 °C | 5 nM | 7210 nM | CC(F)(F)COc1ncc(-c2cccc(COC(=O)NC(=N)N)n2)cn1 [Example 20, [6-[2-(2,2-difluoropropoxy)pyrimidin-5-yl]-2-pyridyl]methyl N-carbamimidoylcarbamate] | –
183 °C | 4 nM | 1590 nM | N=C(N)NC(=O)OCc1cccc(-c2cnc(OCc3ccon3)nc2)n1 [Example 24, [6-[2-(isoxazol-3-ylmethoxy)pyrimidin-5-yl]-2-pyridyl]methyl N-carbamimidoylcarbamate] | –

— patent US9926292B2, “Pyridinyl derivatives, pharmaceutical compositions and uses thereof” (Boehringer Ingelheim International GmbH, priority 2016, dated 2018)
